Test results published in patent publication US12559733B2, “Optimization of type IV BRAF inhibitors for the treatment of melanoma” (UNIVERSITY OF SOUTH CAROLINA, priority 2020, dated 2026).
Where a SMILES comes first, the peptide text is derived from it. Bridges are numbered along the chain shown (N, C = ends). Where no end group is shown, it is not given here. [ ]: non-standard residue; d: D form. The star is where a group is joined. NMeR = CN[C@@H](CCCNC(=N)N)C(=O)O; X1 = CC(C)CCOc1ccc(CCN*)cc1; Orn = NCCC[C@H](N)C(=O)O; Bz = O=C(c1ccccc1)*

tested on: SBcl2 melanoma cell; experiment: Melanoma cell growth / colony formation; assay type: cell-based, human; settings: SBcl2 melanoma cells

Q: Which “concentration that impaired cell growth” value does the source give for GVLAATAAVNALLFAGYST [SEQ ID NO: 68] here?
A: 7.2 µM

same assay, conditions: control vs FAM-TAT-SEQ ID NO: 17

Q: Which “growth-impairing concentration relative to the test sequence” value does the source give for GVLAATAAVNALLFAGYST [SEQ ID NO: 68] here?
A: 4 fold

molecular target: dimer forming interface (Homo sapiens, UniProt P15056); experiment: Kd (μM); settings: not given
Sequence (P15056 2-766 limits assumed): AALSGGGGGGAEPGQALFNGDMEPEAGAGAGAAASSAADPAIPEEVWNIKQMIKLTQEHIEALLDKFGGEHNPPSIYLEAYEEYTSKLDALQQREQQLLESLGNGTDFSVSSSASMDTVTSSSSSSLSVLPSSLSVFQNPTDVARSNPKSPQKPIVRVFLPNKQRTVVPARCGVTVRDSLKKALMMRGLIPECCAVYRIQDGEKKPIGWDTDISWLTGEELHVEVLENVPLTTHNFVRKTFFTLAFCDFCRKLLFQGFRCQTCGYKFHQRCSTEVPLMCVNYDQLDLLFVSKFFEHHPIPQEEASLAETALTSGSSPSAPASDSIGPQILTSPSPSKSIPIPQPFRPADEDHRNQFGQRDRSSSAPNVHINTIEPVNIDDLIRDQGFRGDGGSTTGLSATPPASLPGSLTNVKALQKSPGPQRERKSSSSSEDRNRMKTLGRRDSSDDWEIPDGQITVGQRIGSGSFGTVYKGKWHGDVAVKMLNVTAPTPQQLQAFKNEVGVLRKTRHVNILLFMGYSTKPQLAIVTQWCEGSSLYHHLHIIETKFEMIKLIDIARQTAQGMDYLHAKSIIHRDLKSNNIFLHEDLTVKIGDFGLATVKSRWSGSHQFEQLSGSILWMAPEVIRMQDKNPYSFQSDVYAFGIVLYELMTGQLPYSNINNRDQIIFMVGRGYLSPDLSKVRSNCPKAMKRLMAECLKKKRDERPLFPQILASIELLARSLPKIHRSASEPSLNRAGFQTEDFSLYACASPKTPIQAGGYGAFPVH

Q: With `CC[C@H](C)[C@H](NC(=O)[C@H](CC(N)=O)NC(=O)[C@@H](NC(=O)[C@H](Cc1c[nH]cn1)NC(=O)[C@H](CCCNC(=N)N)NC(=O)[C@@H](NC(=O)[C@H](CCCCN)NC(=O)[C@H](CCCNC(=N)N)NC(=O)[C@H](CC(C)C)NC(=O)[C@@H](NC(C)=O)C(C)C)[C@@H](C)O)C(C)C)C(=O)N[C@@H](CC(C)C)C(=O)N[C@@H](CC(C)C)C(=O)N[C@@H](Cc1ccccc1)C(=O)N[C@@H](CCSC)C(=O)NCC(=O)O` [compound 19] as the molecule, how does the Kd read?
A: 800 ± 83 nM

Q: With LLKTRHVNILLFMG [compound 32] as the molecule, how does the Kd read?
A: 550 ± 105 nM

Q: For LRKTRHVNILLFMG [SEQ ID NO: 31], which Kd is on record?
A: 190 ± 130 nM

Q: Which Kd does the source give for VARKTRHVNILLFMG [compound 21] here?
A: 450 ± 30 nM

Q: Which Kd does the source give for VLAKTRHVNILLFMG [SEQ ID NO: 22] here?
A: 360 ± 30 nM

Q: Which Kd does the source give for VLRKTAHVNILLFMG [compound 24] here?
A: 2400 ± 350 nM

Q: Which Kd does the source give for VLRKTRAVNILLFMG [compound 25] here?
A: 2700 ± 400 nM

Q: Which Kd does the source give for VLRKTRHVNALLFMG [compound 27] here?
A: 2690 ± 350 nM

Q: Which Kd does the source give for VLRKTRHVNIALFMG [compound 28] here?
A: 1020 ± 140 nM

Q: With VLRKTRHVNILLAMG [compound 29] as the molecule, how does the Kd read?
A: 570 ± 80 nM

Q: Which Kd does the source give for VLRKTRHVNILLFAG [compound 30] here?
A: 540 ± 150 nM

molecular target: T1, B-Raf (Homo sapiens, UniProt P15056); experiment: Dissociation constant (Kd) determination from intrinsic Trp fluorescence (ITF); assay type: binding; settings: not given
T1 sequence (P15056 whole entry): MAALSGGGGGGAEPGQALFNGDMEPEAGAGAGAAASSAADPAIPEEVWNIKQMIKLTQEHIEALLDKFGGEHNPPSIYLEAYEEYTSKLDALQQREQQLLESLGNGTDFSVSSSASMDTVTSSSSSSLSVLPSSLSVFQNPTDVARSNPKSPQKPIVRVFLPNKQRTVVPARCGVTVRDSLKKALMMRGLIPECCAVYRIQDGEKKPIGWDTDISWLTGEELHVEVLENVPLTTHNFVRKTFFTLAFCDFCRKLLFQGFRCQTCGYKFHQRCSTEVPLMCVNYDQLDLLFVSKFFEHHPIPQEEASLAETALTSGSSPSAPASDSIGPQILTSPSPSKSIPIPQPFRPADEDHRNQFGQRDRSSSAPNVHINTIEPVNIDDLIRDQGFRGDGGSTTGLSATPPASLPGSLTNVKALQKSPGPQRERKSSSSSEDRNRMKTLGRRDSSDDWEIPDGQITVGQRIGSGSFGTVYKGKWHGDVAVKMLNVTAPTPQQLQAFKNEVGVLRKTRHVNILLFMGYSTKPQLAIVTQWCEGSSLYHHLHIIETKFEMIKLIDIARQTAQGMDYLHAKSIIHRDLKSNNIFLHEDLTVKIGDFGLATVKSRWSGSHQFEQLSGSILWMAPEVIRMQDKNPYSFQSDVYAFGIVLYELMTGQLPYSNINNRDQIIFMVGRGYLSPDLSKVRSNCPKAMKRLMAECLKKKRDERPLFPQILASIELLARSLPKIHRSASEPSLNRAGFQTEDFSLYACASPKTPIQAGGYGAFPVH

Q: With `CSCC[C@H](NC(=O)[C@H](Cc1ccccc1)NC(=O)[C@H](CC(C)C)NC(=O)[C@H](CC(C)C)NC(=O)[C@@H]1CCC(=O)NCCCC[C@H](N)C(=O)N[C@@H](CCCNC(=N)N)C(=O)N[C@@H](Cc2c[nH]cn2)C(=O)N[C@@H](C(C)C)C(=O)N[C@@H](C)C(=O)N1)C(=O)NCC(N)=O` [compound 47] (H-KRHVAELLFMG-NH2; lactam 1-6) as the molecule, how does the Kd read?
A: 590 ± 20 nM

Q: Which Kd does the source give for `CC(C)[C@@H]1NC(=O)[C@H](Cc2c[nH]cn2)NC(=O)[C@H](CCCNC(=N)N)NC(=O)[C@@H](N)CCCCNC(=O)CC[C@@H](C(N)=O)NC(=O)[C@H](C)NC1=O` [compound 48] (H-KRHVAE-NH2; lactam 1-6) here?
A: 300 ± 30 nM

Q: For `CSCC[C@H](NC(=O)[C@H](Cc1ccccc1)NC(=O)[C@H](CC(C)C)NC(=O)[C@H](CC(C)C)NC(=O)[C@@H]1CCC(=O)NCCCC[C@H](NC(=O)[C@H](CCCCN)NC(=O)[C@H](CCCNC(=N)N)NC(=O)[C@H](CC(C)C)NC(=O)[C@@H](N)C(C)C)C(=O)N[C@@H](CCCNC(=N)N)C(=O)N[C@@H](Cc2c[nH]cn2)C(=O)N[C@@H](C(C)C)C(=O)N[C@@H](CC(N)=O)C(=O)N1)C(=O)NCC(N)=O` [compound 53], which Kd is on record?
A: 1890 ± 330 nM

Q: Which Kd does the source give for `CSCC[C@H](NC(=O)[C@H](Cc1ccccc1)NC(=O)[C@H](CCC(C)C)NC(=O)[C@H](CC(C)C)NC(=O)[C@@H]1CCC(=O)NCCC[C@H](NC(=O)[C@H](CCCCN)NC(=O)[C@H](CCCNC(=N)N)NC(=O)[C@H](CC(C)C)NC(=O)[C@@H](N)C(C)C)C(=O)N[C@@H](CCCNC(=N)N)C(=O)N[C@@H](Cc2c[nH]cn2)C(=O)N[C@@H](C(C)C)C(=O)N[C@@H](C)C(=O)N1)C(=O)NCC(N)=O` [compound 57] here?
A: 430 ± 30 nM

Q: With `CC[C@H](C)[C@H](NC(=O)[C@H](CC(C)C)NC(=O)[C@@H]1CCC(=O)NCCC[C@H](NC(=O)[C@H](CCCCN)NC(=O)[C@H](CCCNC(=N)N)NC(=O)[C@H](CC(C)C)NC(=O)[C@@H](N)C(C)C)C(=O)N[C@@H](CCCNC(=N)N)C(=O)N[C@@H](Cc2c[nH]cn2)C(=O)N[C@@H](C(C)C)C(=O)N[C@@H](C)C(=O)N1)C(=O)N[C@@H](Cc1ccccc1)C(=O)N[C@@H](CCSC)C(=O)NCC(N)=O` [compound 58] (H-VLRK[Orn]RHVAELIFMG-NH2; lactam 5-10; N-terminus assumed) as the molecule, how does the Kd read?
A: 170 ± 60 nM

Q: Which Kd does the source give for `CSCC[C@H](NC(=O)[C@H](Cc1ccccc1)NC(=O)[C@H](CC(C)C)NC(=O)[C@H](CC(C)C)NC(=O)[C@@H]1CCC(=O)NCCCC[C@H](NC(=O)[C@H](CCCCN)NC(=O)[C@H](CCCNC(=N)N)NC(=O)[C@H](CC(C)C)NC(=O)[C@@H](N)C(C)C)C(=O)N[C@@H](CCCNC(=N)N)C(=O)N[C@@H](Cc2c[nH]cn2)C(=O)N[C@@H](C(C)C)C(=O)N[C@@H](C)C(=O)N1)C(=O)NCC(N)=O` [compound 59] here?
A: 61 ± 10 nM

Q: With `CSCC[C@H](NC(=O)[C@H](Cc1ccccc1)NC(=O)[C@H](CC(C)C)NC(=O)[C@H](CC(C)C)NC(=O)[C@@H]1CCC(=O)NCCCC[C@H](NC(=O)[C@H](CCCCN)NC(=O)[C@H](CCCNC(=N)N)NC(=O)[C@H](CC(C)C)NC(=O)[C@@H](N)C(C)C)C(=O)N(C)[C@@H](CCCNC(=N)N)C(=O)N[C@@H](Cc2c[nH]cn2)C(=O)N[C@@H](C(C)C)C(=O)N[C@@H](C)C(=O)N1)C(=O)NCC(N)=O` [compound 60] as the molecule, how does the Kd read?
A: 39 ± 20 nM

Q: With `CSCC[C@H](NC(=O)[C@H](Cc1ccccc1)NC(=O)[C@H](CC(C)C)NC(=O)[C@H](CC(C)C)NC(=O)[C@@H]1CCC(=O)NCCCC[C@H](N)C(=O)N[C@@H](CCCNC(=N)N)C(=O)N[C@@H](Cc2c[nH]cn2)C(=O)N2CCC[C@H]2C(=O)N[C@@H](C)C(=O)N1)C(=O)NCC(N)=O` [compound 61] (H-KRHPAELLFMG-NH2; lactam 1-6) as the molecule, how does the Kd read?
A: 160 ± 20 nM

same assay, conditions: FIG. 1, unit not given

Q: For GVLRKTHHVNILGFWGYST [SEQ ID NO: 2], which “Kd, binding affinity to the dimer forming interface of B-Raf” value (“Kd, binding affinity” below) is on record?
A: no measurable binding

Q: With GVLRKTRFVNILLFMGYST [SEQ ID NO: 9] as the molecule, how does the “Kd, binding affinity” value read?
A: no measurable binding

Q: Which “Kd, binding affinity” value does the source give for GVLRKTRHVNILLDMGYST [SEQ ID NO:14] here?
A: no measurable binding

same assay, conditions: Table 2, binding affinity with BRAF, cyclized vs linear peptides; read-out: Kd

Q: For VLRKTRHVNILLFM [compound 16], which Kd is on record?
A: 5750 ± 1200 nM

molecular target: T1, B-Raf; experiment: Isothermal Titration Calorimetry (ITC) of B-Raf binding of peptides; settings: change in enthalpy
Description: Isothermal Titration Calorimetry (ITC) of B-Raf Binding of Peptides
An isothermal titration calorimeter composed of two identical cells surrounded by an adiabatic jacket was used to perform ITC measurements. The thermopile/thermocouple circuits were used to detect temperature differences between a reference cell (filled with buffer or water) and a sample cell containing the macromolecule. During an experiment, ligand is titrated into the sample cell in precisely known aliquots, causing heat to be either taken up or evolved (depending on the nature of the reaction). Measurements consist of the time-dependent input of power required to maintain equal temperatures between the sample and reference cells. In an exothermic reaction, the temperature in the sample cell increases upon addition of ligand. This causes the feedback power to the sample cell to be decreased (remember: a reference power is applied to the reference cell) in order to maintain an equal temperature between the two cells. In an endothermic reaction, the opposite occurs; the feedback circuit increases the power in order to maintain a constant temperature (isothermic/isothermal operation). […] The pattern of these heat effects as a function of the molar ratio [ligand]/[macromolecule] can then be analyzed to give the thermodynamic parameters of the interaction under study.

Q: For `CC[C@H](C)[C@H](NC(=O)[C@H](CC(N)=O)NC(=O)[C@@H](NC(=O)[C@H](Cc1c[nH]cn1)NC(=O)[C@H](CCCNC(=N)N)NC(=O)[C@H](C)NC(=O)[C@H](CCCCN)NC(=O)[C@H](CCCNC(=N)N)NC(=O)[C@H](CC(C)C)NC(=O)[C@@H](NC(=O)CN)C(C)C)C(C)C)C(=O)N[C@@H](CC(C)C)C(=O)N[C@@H](CC(C)C)C(=O)N[C@@H](Cc1ccccc1)C(=O)N[C@@H](CCSC)C(=O)NCC(=O)N[C@@H](Cc1ccc(O)cc1)C(=O)N[C@@H](CO)C(=O)N[C@H](C(=O)O)[C@@H](C)O` [SEQ ID NO: 8], which ΔH is on record?
A: -8.32 kcal/mol

same assay, conditions: change in entropy, text b156

Q: With `CC[C@H](C)[C@H](NC(=O)[C@H](CC(N)=O)NC(=O)[C@@H](NC(=O)[C@H](Cc1c[nH]cn1)NC(=O)[C@H](CCCNC(=N)N)NC(=O)[C@H](C)NC(=O)[C@H](CCCCN)NC(=O)[C@H](CCCNC(=N)N)NC(=O)[C@H](CC(C)C)NC(=O)[C@@H](NC(=O)CN)C(C)C)C(C)C)C(=O)N[C@@H](CC(C)C)C(=O)N[C@@H](CC(C)C)C(=O)N[C@@H](Cc1ccccc1)C(=O)N[C@@H](CCSC)C(=O)NCC(=O)N[C@@H](Cc1ccc(O)cc1)C(=O)N[C@@H](CO)C(=O)N[C@H](C(=O)O)[C@@H](C)O` [SEQ ID NO: 8] as the molecule, how does the ΔS read?
A: −28.4 J/mol·K

tested on: not listed separately; experiment: Parallel artificial membrane permeability assay (PAMPA); assay type: in vitro ADME; settings: phospholipid and dodecane artificial membrane, mass spectroscopy
Description: A parallel artificial membrane permeability assay (PAMPA) was carried out using phospholipid and dodecane as the artificial membrane.

Q: Which passive permeability does the source give for `CC[C@H](C)[C@H](NC(=O)[C@H](CC(N)=O)NC(=O)[C@@H](NC(=O)[C@H](Cc1cnc[nH]1)NC(=O)[C@H](CCCNC(=N)N)NC(=O)[C@@H](NC(=O)[C@H](CCCCN)NC(=O)[C@H](CCCNC(=N)N)NC(=O)[C@H](CC(C)C)NC(=O)[C@@H](NC(=O)CN)C(C)C)[C@@H](C)O)C(C)C)C(=O)N[C@@H](CC(C)C)C(=O)N[C@@H](CC(C)C)C(=O)N[C@@H](Cc1ccccc1)C(=O)N[C@@H](CCSC)C(=O)NCC(=O)N[C@@H](Cc1ccc(O)cc1)C(=O)N[C@@H](CO)C(=O)N[C@H](C(=O)O)[C@@H](C)O` [SEQ ID NO: 1] here?
A: no detectable trace of passive permeability

Q: With `CSCC[C@H](NC(=O)[C@H](Cc1ccccc1)NC(=O)[C@H](CC(C)C)NC(=O)[C@H](CC(C)C)NC(=O)[C@@H]1CCC(=O)NCCCC[C@H](NC(=O)[C@H](CCCCN)NC(=O)[C@H](CCCNC(=N)N)NC(=O)[C@@H](N)CC(C)C)C(=O)N[C@@H](CCCNC(=N)N)C(=O)N[C@@H](Cc2c[nH]cn2)C(=O)N[C@@H](C(C)C)C(=O)N[C@@H](C)C(=O)N1)C(=O)NCC(N)=O` [compound 38] as the molecule, how does the passive permeability read?
A: no detectable trace of passive permeability

Q: With `CC(C)[C@@H]1NC(=O)[C@H](Cc2c[nH]cn2)NC(=O)[C@H](CCCNC(=N)N)NC(=O)[C@@H](N)CCCCNC(=O)CC[C@@H](C(N)=O)NC(=O)[C@H](C)NC1=O` [compound 48] (H-KRHVAE-NH2; lactam 1-6) as the molecule, how does the passive permeability read?
A: no detectable trace of passive permeability

Q: Which passive permeability does the source give for `CC(C)CCOc1ccc(CCNC(=O)[C@@H]2CCC(=O)NCCCC[C@H](NC(=O)c3ccccc3)C(=O)N(C)[C@@H](CCCNC(=N)N)C(=O)N[C@H](C)C(=O)N3CCC[C@H]3C(=O)N[C@@H](C)C(=O)N2)cc1` [compound 64] (Bz-K[NMeR][dA]PAE-X1; lactam 1-6) here?
A: no detectable trace of passive permeability

tested on: NRASQ61K-mutant SBcl2 melanoma cells; experiment: Western blotting of MEK/ERK signalling in melanoma cells treated with peptide and PLX4032; assay type: cell-based, human; settings: FIG. 2A, cells electroporated with peptide, 1 μM PLX4032 1 hour or DMSO
Description: Following recovery at 37° C. for 30 minutes, the cells were treated with 1 μM PLX4032 for 1 hour or DMSO as a vehicle control. Subsequently, the cells were harvested, lysed using RIPA buffer and analyzed by Western blotting using the indicated antibodies. […] Four hours prior to harvest, the cells were treated with 1 μM vemurafenib (PLX4032), or the same volume of DMSO as vehicle control. RIPA buffer lysates were subjected to Western blotting using the indicated antibodies. Detection of Hsp90 served as a representative loading control.
NRAS^Q61K-mutant SBCl2 melanoma cells were electroporated with the BioRad Gene Pulser XCell™ in the presence of the indicated concentrations of peptide. Following recovery at 37° C. for 30 minutes, cells were treated with 1 μM PLX4032 for 1 hour or DMSO as a vehicle control. Subsequently, the cells were harvested, lysed using RIPA buffer, and analyzed by Western blotting using the indicated antibodies.

Q: With `CC[C@H](C)[C@H](NC(=O)[C@H](CC(N)=O)NC(=O)[C@@H](NC(=O)[C@H](Cc1cnc[nH]1)NC(=O)[C@H](CCCNC(=N)N)NC(=O)[C@@H](NC(=O)[C@H](CCCCN)NC(=O)[C@H](CCCNC(=N)N)NC(=O)[C@H](CC(C)C)NC(=O)[C@@H](NC(=O)CN)C(C)C)[C@@H](C)O)C(C)C)C(=O)N[C@@H](CC(C)C)C(=O)N[C@@H](CC(C)C)C(=O)N[C@@H](Cc1ccccc1)C(=O)N[C@@H](CCSC)C(=O)NCC(=O)N[C@@H](Cc1ccc(O)cc1)C(=O)N[C@@H](CO)C(=O)N[C@H](C(=O)O)[C@@H](C)O` [SEQ ID NO: 1] as the molecule, how does the “downstream signaling of MEK and ERK (pMEK, pERK)” value read?
A: reduce downstream signaling of MEK and ERK
